Measurements reported in US20070191267A1, “Use of tyrosine kinase inhibitors for treating cerebral ischemia” (AB SCIENCE, priority 2003, published 2007).

System: not given
Experiment: not given
Settings: not given
A melting point of 203 to 206 °C was found for `Cc1ccc(NC(=O)Nc2ccccc2F)cc1Nc1nc(-c2cccnc2)cs1` [Compound 023, 1-(2-Fluoro-phenyl)-3-[4-methyl-3-(4-pyridin-3-yl-thiazol-2-ylamino)-phenyl]-urea] in this work.
A melting point of 210 to 215 °C was found for `Cc1ccc(NC(=O)Nc2cccc(F)c2)cc1Nc1nc(-c2cccnc2)cs1` [Compound 025, 1-(3-Fluoro-phenyl)-3-[4-methyl-3-(4-pyridin-3-yl-thiazol-2-ylamino)-phenyl]-urea] in this work.
A melting point of 238 to 240 °C was found for `Cc1ccc(NC(=O)Nc2ccc(C)c(Nc3nc(-c4cccnc4)cs3)c2)cc1` [Compound 026, 3-[4-Methyl-3-(4-pyridin-3-yl-thiazol-2-ylamino)-phenyl]-3-p-tolyl-urea] in this work.
A melting point of 230 to 233 °C was found for `Cc1ccc(NC(=O)c2ccc(NS(=O)(=O)c3cccs3)cc2)cc1Nc1nc(-c2cccnc2)cs1` [Compound 044, N-[4-Methyl-3-(4-pyridin-3-yl-thiazol-2-ylamino)-phenyl]-4-(thiophene-2-sulfonylamino)-benzamide] in this work.
A melting point of 184 to 186 °C was found for `Cc1ccc(NC(=O)c2cccc(F)c2)cc1Nc1nc(-c2cccnc2)cs1` [Compound 045, 3-Fluoro-N-[4-methyl-3-(4-pyridin-3-yl-thiazol-2-ylamino)-phenyl]-benzamide] in this work.
A melting point of 254 to 256 °C was found for `Cc1ccc(NC(=O)c2ccc(-c3ccncc3)cc2)cc1Nc1nc(-c2cccnc2)cs1` [Compound 046, N-[4-Methyl-3-(4-pyridin-3-yl-thiazol-2-ylamino)-phenyl]-4-pyridin-4-yl-benzamide] in this work.
A melting point of 147 to 150 °C was found for `Cc1ccc(NC(=O)c2ccc(N(C)C)cc2)cc1Nc1nc(-c2cccnc2)cs1` [Compound 047, 4-Dimethylamino-N-[4-methyl-3-(4-pyridin-3-yl-thiazol-2-ylamino)-phenyl]-benzamide] in this work.
A melting point of 103 to 106 °C was found for `Cc1ccc(F)c(C(=O)Nc2ccc(C)c(Nc3nc(-c4cccnc4)cs3)c2)c1` [Compound 048, 2-Fluoro-5-methyl-N-[4-methyl-3-(4-pyridin-3-yl-thiazol-2-ylamino)-phenyl]-benzamide] in this work.
A melting point of 145 to 150 °C was found for `Cc1ccc(NC(=O)c2ccc(C(C)(C)C)cc2)cc1Nc1nc(-c2cccnc2)cs1` [Compound 049, 4-tert-Butyl-N-[4-methyl-3-(4-pyridin-3-yl-thiazol-2-ylamino)-phenyl]-benzamide] in this work.
A melting point of 75 to 80 °C was found for `Cc1ccc(NC(=O)c2cccc(OCCN3CCOCC3)c2)cc1Nc1nc(-c2cccnc2)cs1` [Compound 052, N-[4-Methyl-3-(4-pyridin-3-yl-thiazol-2-ylamino)-phenyl]-3-(2-morpholin-4-yl-ethoxy)-benzamide] in this work.
A melting point of 197 to 198 °C was found for `Cc1ccc(NC(=O)c2cccc(N(C)C)c2)cc1Nc1nc(-c2cccnc2)cs1` [Compound 088, 3-Dimethylamino-N-[4-methyl-3-(4-pyridin-3-yl-thiazol-2-ylamino)-phenyl]-benzamide] in this work.
A melting point of 247 to 248 °C was found for `Cc1ccc(NC(=O)c2cccc(N3CCOCC3)c2)cc1Nc1nc(-c2cccnc2)cs1` [Compound 090, N-[4-Methyl-3-(4-pyridin-3-yl-thiazol-2-ylamino)-phenyl]-3-morpholin-4-yl-benzamid] in this work.
A melting point of 116 to 120 °C was found for `Cc1ccc(NC(=O)CCCN2CCOCC2)cc1Nc1nc(-c2cccnc2)cs1` [Compound 096, N-[4-Methyl-3-(4-pyridin-3-yl-thiazol-2-ylamtino)-phenyl]-4-morpholin-4-yl-butyramide] in this work.

Molecular target: T1, c-kit (Homo sapiens, UniProt P10721)
T1 construct: purified intracellular domain of c-kit expressed in baculovirus; made in house
T1 sequence (P10721 546-976 limits assumed): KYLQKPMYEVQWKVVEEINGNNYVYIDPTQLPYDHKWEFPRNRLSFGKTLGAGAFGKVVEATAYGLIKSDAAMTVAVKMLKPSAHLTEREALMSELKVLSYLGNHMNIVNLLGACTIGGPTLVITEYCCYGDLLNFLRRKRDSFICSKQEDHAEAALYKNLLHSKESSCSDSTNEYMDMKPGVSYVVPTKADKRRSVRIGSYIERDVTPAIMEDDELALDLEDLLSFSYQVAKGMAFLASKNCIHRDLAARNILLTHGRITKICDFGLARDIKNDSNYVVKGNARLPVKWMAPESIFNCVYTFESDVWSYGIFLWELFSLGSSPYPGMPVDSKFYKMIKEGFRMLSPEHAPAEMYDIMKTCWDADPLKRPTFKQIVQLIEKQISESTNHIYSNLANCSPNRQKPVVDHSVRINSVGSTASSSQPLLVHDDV
Experiment: In vitro TK inhibition assay (ELISA, phosphorylation of tyrosine containing target peptide)
Format: biochemical
Settings: purified intracellular domain of c-kit expressed in baculovirus
Procedure: in Vitro TK Inhibition Assays
Experiments were performed using purified intracellular domain of c-kit expressed in baculovirus. Estimation of the kinase activity was assessed by the phosphorylation of tyrosine containing target peptide estimated by established ELISA assay.
An IC50 of less than 10 µM was found for `Cc1ccc(NC(=O)Nc2ccccc2F)cc1Nc1nc(-c2cccnc2)cs1` [Compound 023, 1-(2-Fluoro-phenyl)-3-[4-methyl-3-(4-pyridin-3-yl-thiazol-2-ylamino)-phenyl]-urea] in this work.
An IC50 of less than 10 µM was found for `Cc1ccc(NC(=O)c2ccc(-c3ccncc3)cc2)cc1Nc1nc(-c2cccnc2)cs1` [Compound 053] in this work.
An IC50 of less than 10 µM was found for `Cc1ccc(NC(=O)c2cccc(C(F)(F)F)c2F)cc1Nc1nc(-c2cccnc2)cs1` [Compound 055, 2-Fluoro-N-[4-methyl-3-(4-pyridin-3-yl-thiazol-2-ylamino)-phenyl]-3-trifluoromethyl-benzamide] in this work.
An IC50 of less than 10 µM was found for `Cc1ccc(NC(=O)c2ccc(CN3CCN(C)CC3)c(F)c2)cc1Nc1nc(-c2cccnc2)cs1` [Compound 074, 3-Fluoro-4-(4-methyl-piperazin-1-ylmethyl)-N-[4-methyl-3-(4-pyridin-3-yl-thiazol-2-ylarnino)-phenyl]-benzamide] in this work.
